Where two headings read alike, the source gives them in different places.
Key:
[1] = system: RFP-LL/2 cells; assay: Lung metastasis model of RFP-labeled Lewis lung carcinoma cells; type: in vivo, C57BL/6 mice; conditions: 5 mg/kg ip pre-treatment; 14 days
Experimental: (§1) Studies have shown that RIPK1 kinase activity is involved in the promotion of tumor metastasis through death receptor 6-dependent necroptosis of endothelial cells[22] or VEGF-dependent activation of vascular permeability. We thus evaluated the therapeutic effect of PK68 on lung metastasis of mouse melanoma B16-F10 cells in vivo. […] After 2 weeks, the metastasis of B16-F10 cells was measured by histological analysis and assessed as the number of metastasis nodules in the lung. […] Two weeks after intravenous injection of RFP-LL/2 cells, RFP^+ LL/2 cells were isolated from the tumor tissues by flow cytometer sorting and no signal of phosphorylated RIPK1 was detected in these tumors cells (Supplementary Fig. 22). […] Further, we evaluated the effect of PK68 on the tumor cell transmigration across the cultured endothelium. […]
C57BL/6 mice bearing B16-F10 cells (a, b) or RFP-labeled LL/2 cells (c, d) were treated with vehicle, PK68 (5 mg/kg) or Nec-1s (5 mg/kg) as described in the Materials and methods. a, b Tumor metastasis of B16-F10 was measured by the numbers of metastasis nodules and histological analysis. […] The numbers of metastasis nodules on lung surfaces (b) in the metastasis model of B16-F10 were counted with the microscope. c, d Tumor metastasis of RFP-labeled LL/2 was calculated by RFP […] intensity. […]

[2] = system: RFP-LL/2 cells; assay: Early metastasis/extravasation of tumor cells, 6 h after injection; type: in vivo, C57BL/6 mice; conditions: 5 mg/kg ip
Experimental: as §1
Melanoma B16-F10 cells (0.5 × 10^6 cells) or RFP-labeled lung carcinoma LL/2 cells (0.3 × 10^6 cells) were injected into C57BL/6 mice in a volume of 200 μl PBS via the tail intravenous injection. […] The lung metastasis of B16-F10 cells in mice was determined by accounting the number of metastasis nodules with a dissecting microscope (Leica) and histologic analysis. The lung metastasis of LL/2 cells in mice was analyzed by measuring RFP fluorescence intensities with the PerkinElmer IVIS Lumina II. […]

[3] = system: human and mouse cells; assay: RIPK1-dependent necroptosis (abstract summary); type: cell-based; conditions: read-out: EC50, inhibition of RIPK1-dependent necroptosis
Excerpt: Necroptosis is a form of regulated necrosis controlled by receptor-interacting kinase 1 (RIPK1 or RIP1), RIPK3 (RIP3), and pseudokinase mixed lineage kinase domain-like protein (MLKL). […] Herein, we discovered the small-molecule PK6 and its derivatives as a novel class of necroptosis inhibitors that directly block the kinase activity of RIPK1. […] PK68 efficiently blocks cellular activation of RIPK1, RIPK3, and MLKL upon necroptosis stimuli. […] Importantly, PK68 provides strong protection against TNF-α-induced systemic inflammatory response syndrome in vivo.

[4] = Pharmacokinetic profile in mice; type: in vivo; conditions: ICR, mouse, plasma; for AUC(0-t): read-out: AUC0-24
Experimental: Encouraged by our overall satisfactory in vitro potency and selectivity data for PK68, we decided to assess its in vivo pharmacokinetic profile.
Data represent mean value ± standard deviation. b Plasma pharmacokinetic parameters of PO and IV. c, d C57BL/6 mice (n = 5) were treated with the indicated daily oral gavage dosing of PK68 for successive 14 days. Body weight (c) and hematoxylin-eosin (H&E) staining (d) of mice were analyzed. Control mice received an equal amount of vehicle. Magnification: ×40. Data represent mean value ± standard deviation TEXT PRINTED IN THE PICTURE: (b) no label printed: Tmax (hr): 0.5 (PO (Gavage)); Cmax (ng/mL): 2423 (PO (Gavage)); AUC0-24 (ng/mL*hr): 4821 (PO (Gavage)); AUC0-24 (ng/mL*hr): 1588 (IV (Bolus)); AUCINF (ng/mL*hr): 4897 (PO (Gavage)); AUCINF (ng/mL*hr): 1590 (IV (Bolus)); t1/2 (hr): 1.3 (PO (Gavage)); t1/2 (hr): 1.0 (IV (Bolus)); MRT (hr): 1.8 (PO (Gavage)); MRT (hr): 0.8 (IV (Bolus)); CL (mL/hr/kg): 1258 (IV (Bolus)); CL (mL/min/kg): 21 (IV (Bolus)); Vss (mL/kg): 1009 (IV (Bolus)); Vss (L/kg): 1.0 (IV (Bolus)); F(%): 61 (PO (Gavage)) DOUBTS OF THE COPYIST ABOUT THIS PICTURE: Panel b prints no substance label with the PK table. The name PK68 is printed only in panels c and d, so the label is left empty.
Judging by the PK time curve, the observed plasma levels of PK68 were above its EC50 over a period of 8 h. […] These doses were meant to determine the preliminary toxicity effects of PK68 (Fig. 6c). […] We further performed histology of various tissues from mice that had received 14-day treatment of PK68.

For `CC(=O)Nc1nc2ccc(-c3cnc(C)c(NC(=O)OC4CCCCC4)c3)cc2s1` [PK68, cyclohexyl (5-(2-acetamidobenzo[d]thiazol-6-yl)-2-methylpyridin-3-yl)carbamate], the “lung metastasis of RFP-LL/2 cells” value [1] was “markedly decreased”, the “number of RFP-LL/2 cells in the lung 6 h after injection” value [2] was “decreased number” and the EC50 [3] was 14 to 22 nM. It also gave a clearance ([4]; iv, 2 mg/kg, IV (Bolus)) of 21 mL/min/kg, a Vd ([4]; iv, 2 mg/kg, IV (Bolus), read-out: Vss) of 1 L/kg and an AUC(0-inf) ([4]; 2 mg/kg, IV (Bolus)) of 1590 ng·h/mL. For the same compound, the MRT ([4]; 2 mg/kg, IV (Bolus)) was 0.8 h, the half-life ([4]; 2 mg/kg, IV (Bolus)) was 1 h and the AUC(0-t) ([4]; 2 mg/kg, IV (Bolus)) was 1590 ng·h/mL. The AUC(0-inf) ([4]; 10 mg/kg, PO (Gavage)) was 4900 ng·h/mL, the MRT ([4]; 10 mg/kg, PO (Gavage)) was 1.8 h and the half-life ([4]; 10 mg/kg, PO (Gavage)) was 1.3 h. For the same compound, the AUC(0-t) ([4]; 10 mg/kg, PO (Gavage)) was 4820 ng·h/mL, the bioavailability ([4]; 10 mg/kg, PO (Gavage), read-out: F(%) oral bioavailability) was 61% and the Cmax ([4]; po, orally 10 mg/kg, read-out: plasma concentration translated from Cmax) was about 4 µM. It also gave a Tmax ([4]; PO (Gavage), 10 mg/kg) of 0.5 h and a Cmax ([4]; PO (Gavage), 10 mg/kg, read-out: Cmax) of 2420 ng/mL.

Reference: article PMC6591251, “Discovery of potent necroptosis inhibitors targeting RIPK1 kinase activity for the treatment of inflammatory disorder and cancer metastasis” (Cell Death & Disease, 2019)
